Assay results: patent US6914045B2, “Glycopeptide antibiotics” (Wyeth Holdings Corporation, priority 2001, dated 2005)

Experiments:
Test in all cases: in vitro antibacterial evaluation, MIC by broth dilution
Assay type in all cases: cell-based
Escherichia coli = conditions: 18 hours at 35° C.
Streptococcus sp. = conditions: broth dilution, 18 hours at 35° C.
Method in brief: (§1)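 Following National Committee for Clinical Laboratory Standards recommendations (M7-A2), susceptibility was measured by dilution in Muller-Hinton II […]. Bacteria were seeded at 5×10^5 CFU/mL against compound concentrations from 64 down to 0.06 μg/mL.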

Enterococcus sp. = conditions: broth dilution, 18 hours at 35° C.
Method in brief: as §1

Staphylococcus sp. = conditions: broth dilution, 18 hours at 35° C.
Method in brief: as §1

[1] = inoculum 5×10^5 CFU/mL, strain ATCC 6301
[2] = inoculum 5×10^5 CFU/mL, strain GC 1894
[3] = inoculum 5×10^5 CFU/mL, strain GC 4563
[4] = inoculum 5×10^5 CFU/mL, strain GC 4564
[5] = inoculum 5×10^5 CFU/mL, strain GC 4565
[6] = inoculum 5×10^5 CFU/mL, strain GC 2242
[7] = inoculum 5×10^5 CFU/mL, strain GC 2691
[8] = inoculum 5×10^5 CFU/mL, strain GC 3059

CC(c1ccccc1)C1NC(=O)CNC(=O)C(CO)NC(=O)C(C(O)C2CNC(=N)N2C2OC(CO)C(O)C3OC(C)(C)OC32)NC(=O)C(C(O)C2CNC(=N)N2)NC(=O)C(Cc2ccc(OC3OC(CO)C(OC4OC5COC(C)(C)OC5C5OC(C)(C)OC45)C4OC(C)(C)OC34)cc2)NC1=O (centres unmarked) [Example 229b]
32 µg/mL: MIC Escherichia coli (GC 4560) (Escherichia coli)
>128 µg/mL: MIC Escherichia coli (ATCC 25922) (Escherichia coli) | MIC Escherichia coli (GC 4559) (Escherichia coli) | MIC Streptococcus agalactiae (GC 4564) (Streptococcus sp.) | MIC Streptococcus pyogenes (GC 4563) (Streptococcus sp.) | MIC Streptococcus pyogenes (GC 4563) (Streptococcus sp.; [3]) | MIC Streptococcus agalactiae (GC 4564) (Streptococcus sp.; [4]) | MIC Enterococcus faecalis (ATCC 29212) (Enterococcus sp.) | MIC Enterococcus faecalis (GC 2691) (Enterococcus sp.) | MIC Enterococcus faecalis (GC 3059) (Enterococcus sp.) | MIC Enterococcus faecalis (GC 4552) (Enterococcus sp.) | MIC Enterococcus faecalis (GC 4554) (Enterococcus sp.) | MIC Enterococcus faecalis (GC 6189) (Enterococcus sp.) | MIC Enterococcus faecium (GC 2243) (Enterococcus sp.) | MIC Enterococcus faecium (GC 4556) (Enterococcus sp.) | MIC Enterococcus faecalis (ATCC 29212) (Enterococcus sp.; inoculum 5×10^5 CFU/mL, strain ATCC 29212) | MIC Enterococcus faecium (GC 2243) (Enterococcus sp.; inoculum 5×10^5 CFU/mL, strain GC 2243) | MIC Enterococcus faecalis (GC 2691) (Enterococcus sp.; [7]) | MIC Enterococcus faecalis (GC 3059) (Enterococcus sp.; [8]) | MIC Enterococcus faecalis (GC 4552) (Enterococcus sp.; inoculum 5×10^5 CFU/mL, strain GC 4552) | MIC Enterococcus faecalis (GC 4554) (Enterococcus sp.; inoculum 5×10^5 CFU/mL, strain GC 4554) | MIC Enterococcus faecium (GC 4556) (Enterococcus sp.; inoculum 5×10^5 CFU/mL, strain GC 4556) | MIC Enterococcus faecalis (GC 6189) (Enterococcus sp.; inoculum 5×10^5 CFU/mL, strain GC 6189) | MIC Coagulase Negative Staphylococcus (GC 4547) (Staphylococcus sp.) | MIC Coagulase Negative Staphylococcus (GC 4548) (Staphylococcus sp.) | MIC Coagulase Negative Staphylococcus (GC 4549) (Staphylococcus sp.) | MIC Coagulase Negative Staphylococcus (GC 4551) (Staphylococcus sp.) | MIC Coagulase Negative Staphylococcus (GC 6257) (Staphylococcus sp.) | MIC Staphylococcus aureus (ATCC 29213) (Staphylococcus sp.) | MIC Staphylococcus aureus (GC 1131) (Staphylococcus sp.) | MIC Staphylococcus aureus (GC 3051) (Staphylococcus sp.) | MIC Staphylococcus aureus (GC 3053) (Staphylococcus sp.) | MIC Staphylococcus aureus (GC 4541) (Staphylococcus sp.) | MIC Staphylococcus aureus (GC 4542) (Staphylococcus sp.) | MIC Staphylococcus aureus (GC 4544) (Staphylococcus sp.) | MIC Staphylococcus aureus (GC 4545) (Staphylococcus sp.) | MIC Staphylococcus aureus-SMITH (GC 4543) (Staphylococcus sp.) | MIC Staphylococcus haemolyticus (GC 4546) (Staphylococcus sp.) | MIC Staphylococcus aureus (ATCC 29213) (Staphylococcus sp.; strain ATCC 29213) | MIC Staphylococcus aureus (GC 1131) (Staphylococcus sp.; strain GC 1131) | MIC Staphylococcus aureus (GC 3051) (Staphylococcus sp.; strain GC 3051) | MIC Staphylococcus aureus (GC 3053) (Staphylococcus sp.; strain GC 3053) | MIC Staphylococcus aureus (GC 4541) (Staphylococcus sp.; strain GC 4541) | MIC Staphylococcus aureus (GC 4542) (Staphylococcus sp.; strain GC 4542) | MIC Staphylococcus aureus-SMITH (GC 4543) (Staphylococcus sp.; strain GC 4543) | MIC Staphylococcus aureus (GC 4544) (Staphylococcus sp.; strain GC 4544) | MIC Staphylococcus aureus (GC 4545) (Staphylococcus sp.; strain GC 4545) | MIC Staphylococcus haemolyticus (GC 4546) (Staphylococcus sp.; strain GC 4546) | MIC Coagulase Negative Staphylococcus (GC 4547) (Staphylococcus sp.; strain GC 4547) | MIC Coagulase Negative Staphylococcus (GC 4548) (Staphylococcus sp.; strain GC 4548) | MIC Coagulase Negative Staphylococcus (GC 4549) (Staphylococcus sp.; strain GC 4549) | MIC Coagulase Negative Staphylococcus (GC 4551) (Staphylococcus sp.; strain GC 4551) | MIC Coagulase Negative Staphylococcus (GC 6257) (Staphylococcus sp.; strain GC 6257)
64 µg/mL: MIC Enterococcus avium (GC 4558) (Enterococcus sp.) | MIC Enterococcus avium (GC 4558) (Enterococcus sp.; inoculum 5×10^5 CFU/mL, strain GC 4558)
128 µg/mL: MIC Streptococcus pneumoniae (ATCC 6301) (Streptococcus sp.) | MIC Streptococcus pneumoniae (GC 1894) (Streptococcus sp.) | MIC Streptococcus pneumoniae (GC 4565) (Streptococcus sp.) | MIC Streptococcus pneumoniae (ATCC 6301) (Streptococcus sp.; [1]) | MIC Streptococcus pneumoniae (GC 1894) (Streptococcus sp.; [2]) | MIC Streptococcus pneumoniae (GC 4565) (Streptococcus sp.; [5]) | MIC Enterococcus faecalis (GC 2242) (Enterococcus sp.) | MIC Enterococcus faecalis (GC 4553) (Enterococcus sp.) | MIC Enterococcus faecium (GC 4557) (Enterococcus sp.) | MIC Enterococcus faecalis (GC 2242) (Enterococcus sp.; [6]) | MIC Enterococcus faecalis (GC 4553) (Enterococcus sp.; inoculum 5×10^5 CFU/mL, strain GC 4553) | MIC Enterococcus faecium (GC 4557) (Enterococcus sp.; inoculum 5×10^5 CFU/mL, strain GC 4557)

COc1ccc(COCC2OC(OC3C(CO)OC(Oc4ccc(CC5NC(=O)C(C(C)c6ccccc6)NC(=O)CNC(=O)C(CO)NC(=O)C(C(O)C6CNC(=N)N6C6OC(CO)C(O)C(O)C6O)NC(=O)C(C(O)C6CNC(=N)N6)NC5=O)cc4)C(O)C3O)C(O)C(O)C2O)cc1F (centres unmarked) [Example 237]
1 µg/mL: MIC Escherichia coli (GC 4560) (Escherichia coli) | MIC Streptococcus pyogenes (GC 4563) (Streptococcus sp.) | MIC Streptococcus pyogenes (GC 4563) (Streptococcus sp.; [3]) | MIC Coagulase Negative Staphylococcus (GC 4548) (Staphylococcus sp.) | MIC Coagulase Negative Staphylococcus (GC 4549) (Staphylococcus sp.) | MIC Coagulase Negative Staphylococcus (GC 6257) (Staphylococcus sp.) | MIC Staphylococcus haemolyticus (GC 4546) (Staphylococcus sp.) | MIC Staphylococcus haemolyticus (GC 4546) (Staphylococcus sp.; strain GC 4546) | MIC Coagulase Negative Staphylococcus (GC 4548) (Staphylococcus sp.; strain GC 4548) | MIC Coagulase Negative Staphylococcus (GC 4549) (Staphylococcus sp.; strain GC 4549) | MIC Coagulase Negative Staphylococcus (GC 6257) (Staphylococcus sp.; strain GC 6257)
8 µg/mL: MIC Staphylococcus aureus (GC 4542) (Staphylococcus sp.) | MIC Staphylococcus aureus (GC 4542) (Staphylococcus sp.; strain GC 4542)
4 µg/mL: MIC Enterococcus faecium (GC 4557) (Enterococcus sp.) | MIC Enterococcus faecium (GC 4557) (Enterococcus sp.; strain GC 4557) | MIC Coagulase Negative Staphylococcus (GC 4551) (Staphylococcus sp.) | MIC Staphylococcus aureus (ATCC 29213) (Staphylococcus sp.) | MIC Staphylococcus aureus (GC 1131) (Staphylococcus sp.) | MIC Staphylococcus aureus (GC 3053) (Staphylococcus sp.) | MIC Staphylococcus aureus (GC 4544) (Staphylococcus sp.) | MIC Staphylococcus aureus (ATCC 29213) (Staphylococcus sp.; strain ATCC 29213) | MIC Staphylococcus aureus (GC 1131) (Staphylococcus sp.; strain GC 1131) | MIC Staphylococcus aureus (GC 3053) (Staphylococcus sp.; strain GC 3053) | MIC Staphylococcus aureus (GC 4544) (Staphylococcus sp.; strain GC 4544) | MIC Coagulase Negative Staphylococcus (GC 4551) (Staphylococcus sp.; strain GC 4551)
0.25 µg/mL: MIC Streptococcus pneumoniae (GC 1894) (Streptococcus sp.) | MIC Streptococcus pneumoniae (GC 1894) (Streptococcus sp.; [2])
0.5 µg/mL: MIC Streptococcus pneumoniae (ATCC 6301) (Streptococcus sp.) | MIC Streptococcus pneumoniae (GC 4565) (Streptococcus sp.) | MIC Streptococcus pneumoniae (ATCC 6301) (Streptococcus sp.; [1]) | MIC Streptococcus pneumoniae (GC 4565) (Streptococcus sp.; [5])
64 µg/mL: MIC Escherichia coli (ATCC 25922) (Escherichia coli) | MIC Escherichia coli (GC 4559) (Escherichia coli)
32 µg/mL: MIC Enterococcus faecalis (GC 3059) (Enterococcus sp.) | MIC Enterococcus faecalis (GC 4554) (Enterococcus sp.) | MIC Enterococcus faecalis (GC 4554) (Enterococcus sp.; strain GC 4554) | MIC Enterococcus faecalis (GC 3059) (Enterococcus sp.; [8])
16 µg/mL: MIC Enterococcus avium (GC 4558) (Enterococcus sp.) | MIC Enterococcus faecalis (ATCC 29212) (Enterococcus sp.) | MIC Enterococcus faecalis (GC 2242) (Enterococcus sp.) | MIC Enterococcus faecalis (GC 2691) (Enterococcus sp.) | MIC Enterococcus faecalis (GC 4552) (Enterococcus sp.) | MIC Enterococcus faecalis (GC 4553) (Enterococcus sp.) | MIC Enterococcus faecalis (GC 6189) (Enterococcus sp.) | MIC Enterococcus faecium (GC 2243) (Enterococcus sp.) | MIC Enterococcus faecium (GC 4556) (Enterococcus sp.) | MIC Enterococcus faecalis (ATCC 29212) (Enterococcus sp.; strain ATCC 29212) | MIC Enterococcus faecium (GC 2243) (Enterococcus sp.; strain GC 2243) | MIC Enterococcus faecalis (GC 4552) (Enterococcus sp.; strain GC 4552) | MIC Enterococcus faecalis (GC 4553) (Enterococcus sp.; strain GC 4553) | MIC Enterococcus faecium (GC 4556) (Enterococcus sp.; strain GC 4556) | MIC Enterococcus avium (GC 4558) (Enterococcus sp.; strain GC 4558) | MIC Enterococcus faecalis (GC 6189) (Enterococcus sp.; strain GC 6189) | MIC Enterococcus faecalis (GC 2242) (Enterococcus sp.; [6]) | MIC Enterococcus faecalis (GC 2691) (Enterococcus sp.; [7])
2 µg/mL: MIC Streptococcus agalactiae (GC 4564) (Streptococcus sp.) | MIC Streptococcus agalactiae (GC 4564) (Streptococcus sp.; [4]) | MIC Coagulase Negative Staphylococcus (GC 4547) (Staphylococcus sp.) | MIC Staphylococcus aureus (GC 3051) (Staphylococcus sp.) | MIC Staphylococcus aureus (GC 4541) (Staphylococcus sp.) | MIC Staphylococcus aureus (GC 4545) (Staphylococcus sp.) | MIC Staphylococcus aureus-SMITH (GC 4543) (Staphylococcus sp.) | MIC Staphylococcus aureus (GC 3051) (Staphylococcus sp.; strain GC 3051) | MIC Staphylococcus aureus (GC 4541) (Staphylococcus sp.; strain GC 4541) | MIC Staphylococcus aureus-SMITH (GC 4543) (Staphylococcus sp.; strain GC 4543) | MIC Staphylococcus aureus (GC 4545) (Staphylococcus sp.; strain GC 4545) | MIC Coagulase Negative Staphylococcus (GC 4547) (Staphylococcus sp.; strain GC 4547)
